# Tested on: spatial learning and memory
# Assay: T-water maze in APP/PS1 mice
# Format: in vivo, APPSwe/PS1 mice
# Method: Five groups of APPSwe/PS1 mice received one a week for a period of 12 weeks the following treatment: • Gr1: APPSwe/PS1+NaCl 0.9% n(=20), i.p. injections • Gr4: APPSwe/PS1+CRX527 (20 μg/mouse, 130 μl, n=10), i.p. injections • Gr5: […] (50 μg/mouse, 130 μl, n=10), i.p. injections • Gr8 APPSwe/PS1+AS15 ( 1/10th of human dose, 50 μl, n=10), i.m. injections • Gr9: APPSwe/PS1+AS01B ( 1/10th of human dose, 50 μl, n=10), i.m. injections
# Mice were tested during the “light on” phase of the day. Behavioral experimenter was blinded to the genetic and treatment status of animals. To assess hippocampal-dependent spatial learning and memory, mice were trained in the T-water maze task. In this paradigm, we evaluate the mouse's ability to remember the spatial location of submerged platform. The T-maze apparatus (length of stem, 64 cm; length of arms, 30 cm; width, 12 cm; height of walls, 16 cm) was made of clear fiberglass and filled with water (23±1° C.) at a height of 12 cm. A platform (11×11 cm) was placed at the end of the target arm and was submerged 1 cm below the surface. The acquisition phase allows to evaluate animals for left-right spatial learning. During the first two trials, platforms were placed on each arms of the maze to test the spontaneous turning preference of the mouse. After these two trials, the least chosen arm was reinforced by the escape platform. The mice were placed in the stem of the T-maze and choose to swim either left or right until they found the submerged platform and escape to it, to a maximum of 60 s. After reaching the platform, the mice remained on it for 20 s and then were immediately placed back in the maze. […] Repeated trials were presented on the same day up to a maximum of 48 trials. A rest period of at least 10-15 min intervened between each block of 10 trials. A mouse was considered to have learned the task when it made no errors in a block of five consecutive trials. The reversal learning phase was then conducted 48 h later. During this phase, the same protocol was repeated, except that the mice were trained to find the escape platform on the opposite side to that on which they had learned on acquisition phase. The number of trials to reach the criterion (five of five correct choices made on consecutive trials) was measured as well as the latency to find the escape platform.
compound,measurement,setting,value
CCCCCCCCCCC[C@H](CC(=O)N[C@H]1[C@H](OC[C@H](NC(=O)C[C@@H](CCCCCCCCCCC)OCCCCCCCCCC)C(=O)O)O[C@H](CO)[C@@H](OP(=O)(O)O)[C@@H]1OC(=O)C[C@@H](CCCCCCCCCCC)OCCCCCCCCCC)OCCCCCCCCCC [CRX601],behaviour as assessed by T water maze testing,"Example 21, twelve weekly injections, vs non treated mice",significant improvements in behaviour
same,"cognitive functions, T-water maze","Example 22, i.m. 12x weekly, CRX601 2 μg, CRX601 2 ug in AS03, 3D MPL 5 ug, AS01B 1/10 human dose, vs PBS, unpaired t-tests",significant improvement of their cognitive functions

# Source: patent US20140294849A1, “COMPOSITIONS AND USES” (GLAXOSMITHKLINE BIOLOGICALS SA, priority 2011, published 2014)
